Results: ChEMBL document CHEMBL5653615 (J Biol Chem, 2013)

Experiments:
[1] = biological target: Calcium/calmodulin-dependent protein kinase type II subunit gamma (Homo sapiens) (UniProt Q13555); assay: Inhibition of human CAMK2g at 18.6 nM by HotSpot assay relative to control
[2] = biological target: Casein kinase I isoform gamma-1 (Homo sapiens) (UniProt Q9HCP0); assay: Inhibition of human CK1g1 at 18.6 nM by HotSpot assay relative to control
[3] = biological target: Receptor tyrosine-protein kinase erbB-4 (Homo sapiens) (UniProt Q15303); assay: Inhibition of human ERBB4 at 18.6 nM by HotSpot assay relative to control
[4] = biological target: T1, Inhibitor of nuclear factor kappa-B kinase subunit epsilon (Homo sapiens) (UniProt Q14164); assay: Inhibition of human IKKe at 18.6 nM by HotSpot assay relative to control
T1 sequence (whole entry): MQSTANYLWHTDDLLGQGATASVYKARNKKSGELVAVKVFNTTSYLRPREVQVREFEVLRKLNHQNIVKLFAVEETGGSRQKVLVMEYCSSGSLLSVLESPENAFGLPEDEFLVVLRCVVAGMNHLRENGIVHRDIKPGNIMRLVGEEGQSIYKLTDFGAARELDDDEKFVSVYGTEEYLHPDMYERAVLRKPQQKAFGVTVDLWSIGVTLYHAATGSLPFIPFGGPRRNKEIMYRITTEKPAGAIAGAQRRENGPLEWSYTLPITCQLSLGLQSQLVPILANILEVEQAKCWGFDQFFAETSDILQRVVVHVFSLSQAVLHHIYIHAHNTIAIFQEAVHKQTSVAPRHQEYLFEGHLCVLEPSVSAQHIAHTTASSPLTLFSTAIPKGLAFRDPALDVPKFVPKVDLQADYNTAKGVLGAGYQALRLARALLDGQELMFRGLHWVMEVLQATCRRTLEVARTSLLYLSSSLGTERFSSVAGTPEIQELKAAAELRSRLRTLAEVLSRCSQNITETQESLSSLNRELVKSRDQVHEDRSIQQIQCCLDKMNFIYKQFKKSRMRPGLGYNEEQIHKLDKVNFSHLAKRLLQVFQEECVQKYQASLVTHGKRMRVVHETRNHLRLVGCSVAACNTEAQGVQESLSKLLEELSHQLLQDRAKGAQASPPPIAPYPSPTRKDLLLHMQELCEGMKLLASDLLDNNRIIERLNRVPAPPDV

[5] = biological target: SRSF protein kinase 3 (Homo sapiens) (UniProt Q9UPE1); assay: Inhibition of human STK23 at 18.6 nM by HotSpot assay relative to control
[6] = biological target: G protein-coupled receptor kinase 6 (Homo sapiens) (UniProt P43250); assay: Inhibition of human GRK6 at 1.82 nM by HotSpot assay relative to control
[7] = biological target: MAP kinase-activated protein kinase 2 (Homo sapiens) (UniProt P49137); assay: Inhibition of human MAPKAPK2 at 1.82 nM by HotSpot assay relative to control
[8] = biological target: T2, Serine/threonine-protein kinase Nek1 (Homo sapiens) (UniProt Q96PY6); assay: Inhibition of human NEK1 at 1.82 nM by HotSpot assay relative to control
T2 sequence (whole entry): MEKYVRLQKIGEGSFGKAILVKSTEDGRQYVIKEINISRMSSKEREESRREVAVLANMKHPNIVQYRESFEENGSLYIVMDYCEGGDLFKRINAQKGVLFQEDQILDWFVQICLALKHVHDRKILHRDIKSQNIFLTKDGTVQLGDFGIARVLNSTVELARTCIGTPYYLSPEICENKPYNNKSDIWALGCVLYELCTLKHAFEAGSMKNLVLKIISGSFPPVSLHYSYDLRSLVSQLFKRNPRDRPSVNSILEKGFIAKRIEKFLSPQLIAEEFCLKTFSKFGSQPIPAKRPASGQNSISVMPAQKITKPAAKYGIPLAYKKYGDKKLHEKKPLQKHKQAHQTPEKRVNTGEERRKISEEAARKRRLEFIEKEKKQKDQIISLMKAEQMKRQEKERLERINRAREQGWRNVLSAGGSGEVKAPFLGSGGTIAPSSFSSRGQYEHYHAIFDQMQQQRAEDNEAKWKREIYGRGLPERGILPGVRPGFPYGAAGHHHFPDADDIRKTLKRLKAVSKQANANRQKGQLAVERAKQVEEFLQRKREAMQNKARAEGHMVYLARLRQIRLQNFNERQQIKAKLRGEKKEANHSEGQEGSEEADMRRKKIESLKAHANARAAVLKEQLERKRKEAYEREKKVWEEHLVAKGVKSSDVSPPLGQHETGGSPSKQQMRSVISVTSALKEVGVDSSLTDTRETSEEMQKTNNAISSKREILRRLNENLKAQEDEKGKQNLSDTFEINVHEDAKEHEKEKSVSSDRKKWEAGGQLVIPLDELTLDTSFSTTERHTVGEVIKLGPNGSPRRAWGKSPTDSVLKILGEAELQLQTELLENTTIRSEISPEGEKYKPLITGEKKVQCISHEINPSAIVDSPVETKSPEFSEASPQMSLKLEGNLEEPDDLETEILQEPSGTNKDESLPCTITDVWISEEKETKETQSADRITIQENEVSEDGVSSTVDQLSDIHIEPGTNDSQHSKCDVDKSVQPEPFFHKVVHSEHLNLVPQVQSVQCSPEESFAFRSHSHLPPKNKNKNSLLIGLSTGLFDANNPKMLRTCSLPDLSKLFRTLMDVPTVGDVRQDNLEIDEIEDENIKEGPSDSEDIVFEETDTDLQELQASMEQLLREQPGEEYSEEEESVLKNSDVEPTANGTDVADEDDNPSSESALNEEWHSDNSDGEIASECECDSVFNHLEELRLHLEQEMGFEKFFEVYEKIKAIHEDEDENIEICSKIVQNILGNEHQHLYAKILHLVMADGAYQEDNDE

[9] = biological target: Serine/threonine-protein kinase PAK 4 (Homo sapiens) (UniProt O96013); assay: Inhibition of human PAK4 at 1.82 nM by HotSpot assay relative to control
[10] = biological target: Proto-oncogene tyrosine-protein kinase ROS (Homo sapiens) (UniProt P08922); assay: Inhibition of human ROS1 at 1.82 nM by HotSpot assay relative to control
Chain of Proto-oncogene tyrosine-protein kinase ROS (Homo sapiens) (P08922 whole entry): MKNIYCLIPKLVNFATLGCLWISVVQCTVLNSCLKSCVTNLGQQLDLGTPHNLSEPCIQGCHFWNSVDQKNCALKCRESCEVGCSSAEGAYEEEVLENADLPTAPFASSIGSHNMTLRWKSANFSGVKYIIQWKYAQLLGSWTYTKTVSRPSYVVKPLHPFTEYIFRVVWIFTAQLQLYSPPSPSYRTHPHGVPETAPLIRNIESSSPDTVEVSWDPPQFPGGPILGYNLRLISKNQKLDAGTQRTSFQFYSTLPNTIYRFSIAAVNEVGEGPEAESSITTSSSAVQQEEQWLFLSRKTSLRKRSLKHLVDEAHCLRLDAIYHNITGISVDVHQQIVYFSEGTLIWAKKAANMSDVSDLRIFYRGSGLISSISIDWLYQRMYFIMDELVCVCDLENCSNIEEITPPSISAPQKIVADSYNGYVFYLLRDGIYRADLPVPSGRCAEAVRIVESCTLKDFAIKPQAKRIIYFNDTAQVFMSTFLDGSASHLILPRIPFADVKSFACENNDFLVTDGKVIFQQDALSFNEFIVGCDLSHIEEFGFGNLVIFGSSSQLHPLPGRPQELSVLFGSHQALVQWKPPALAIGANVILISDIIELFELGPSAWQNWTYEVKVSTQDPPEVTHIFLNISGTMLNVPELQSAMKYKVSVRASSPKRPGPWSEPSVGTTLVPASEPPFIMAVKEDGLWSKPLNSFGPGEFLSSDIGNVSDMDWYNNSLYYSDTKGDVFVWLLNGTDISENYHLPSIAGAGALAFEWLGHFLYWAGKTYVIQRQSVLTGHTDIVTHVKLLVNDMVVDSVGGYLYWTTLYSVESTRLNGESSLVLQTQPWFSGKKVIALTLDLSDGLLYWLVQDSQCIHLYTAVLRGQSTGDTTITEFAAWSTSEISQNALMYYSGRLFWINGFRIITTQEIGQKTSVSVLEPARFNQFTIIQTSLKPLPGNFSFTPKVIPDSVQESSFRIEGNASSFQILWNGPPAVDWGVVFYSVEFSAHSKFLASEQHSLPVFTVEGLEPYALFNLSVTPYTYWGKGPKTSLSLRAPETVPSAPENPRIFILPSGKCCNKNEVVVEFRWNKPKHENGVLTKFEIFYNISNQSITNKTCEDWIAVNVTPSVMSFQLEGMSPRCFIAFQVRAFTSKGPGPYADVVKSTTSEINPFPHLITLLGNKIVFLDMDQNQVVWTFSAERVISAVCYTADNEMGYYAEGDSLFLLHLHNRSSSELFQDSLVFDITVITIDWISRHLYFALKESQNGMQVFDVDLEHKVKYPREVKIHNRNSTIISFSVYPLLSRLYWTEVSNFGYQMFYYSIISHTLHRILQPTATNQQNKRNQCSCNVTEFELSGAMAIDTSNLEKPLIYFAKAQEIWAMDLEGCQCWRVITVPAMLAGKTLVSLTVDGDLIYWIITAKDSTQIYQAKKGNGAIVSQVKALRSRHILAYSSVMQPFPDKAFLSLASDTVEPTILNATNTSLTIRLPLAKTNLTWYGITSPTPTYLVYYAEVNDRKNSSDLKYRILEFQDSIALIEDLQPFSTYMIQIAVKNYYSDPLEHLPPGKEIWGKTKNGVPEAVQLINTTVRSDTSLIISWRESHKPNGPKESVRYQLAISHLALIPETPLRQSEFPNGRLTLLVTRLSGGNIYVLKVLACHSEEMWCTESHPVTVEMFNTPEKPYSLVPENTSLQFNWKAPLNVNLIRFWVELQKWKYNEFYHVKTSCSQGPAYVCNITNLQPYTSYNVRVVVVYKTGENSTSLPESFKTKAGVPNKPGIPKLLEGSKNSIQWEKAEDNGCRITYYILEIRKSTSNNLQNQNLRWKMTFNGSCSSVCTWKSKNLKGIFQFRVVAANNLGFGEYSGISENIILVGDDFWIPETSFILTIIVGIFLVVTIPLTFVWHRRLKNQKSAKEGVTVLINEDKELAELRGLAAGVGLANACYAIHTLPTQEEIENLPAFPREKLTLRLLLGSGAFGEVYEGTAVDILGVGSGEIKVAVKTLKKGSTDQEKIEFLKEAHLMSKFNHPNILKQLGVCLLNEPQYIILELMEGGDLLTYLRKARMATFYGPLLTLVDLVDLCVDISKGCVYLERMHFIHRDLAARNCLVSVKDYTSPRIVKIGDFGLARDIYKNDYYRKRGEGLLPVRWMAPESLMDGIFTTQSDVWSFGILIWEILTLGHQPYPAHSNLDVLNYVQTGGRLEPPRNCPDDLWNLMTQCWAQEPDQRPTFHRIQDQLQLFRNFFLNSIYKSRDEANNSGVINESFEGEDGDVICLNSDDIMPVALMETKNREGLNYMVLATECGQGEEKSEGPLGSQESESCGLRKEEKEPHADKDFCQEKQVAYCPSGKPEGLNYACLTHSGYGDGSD

Chain of G protein-coupled receptor kinase 6 (Homo sapiens) (P43250 whole entry, looked up): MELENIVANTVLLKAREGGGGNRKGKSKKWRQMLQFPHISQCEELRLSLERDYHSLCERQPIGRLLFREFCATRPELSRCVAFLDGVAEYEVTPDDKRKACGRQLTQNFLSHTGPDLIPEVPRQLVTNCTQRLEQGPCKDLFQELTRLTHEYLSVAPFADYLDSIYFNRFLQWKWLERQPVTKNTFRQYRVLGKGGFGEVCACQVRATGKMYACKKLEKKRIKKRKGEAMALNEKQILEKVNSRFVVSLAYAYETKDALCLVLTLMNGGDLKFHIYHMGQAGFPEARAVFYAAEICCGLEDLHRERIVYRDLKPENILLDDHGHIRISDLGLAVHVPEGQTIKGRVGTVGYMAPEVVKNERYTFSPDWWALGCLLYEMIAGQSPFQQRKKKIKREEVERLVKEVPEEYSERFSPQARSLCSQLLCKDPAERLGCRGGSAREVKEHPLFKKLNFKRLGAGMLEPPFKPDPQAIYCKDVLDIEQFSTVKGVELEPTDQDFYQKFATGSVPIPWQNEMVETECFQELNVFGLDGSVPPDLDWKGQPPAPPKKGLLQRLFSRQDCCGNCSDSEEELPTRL
Chain of Casein kinase I isoform gamma-1 (Homo sapiens) (Q9HCP0 whole entry, looked up, canonical isoform): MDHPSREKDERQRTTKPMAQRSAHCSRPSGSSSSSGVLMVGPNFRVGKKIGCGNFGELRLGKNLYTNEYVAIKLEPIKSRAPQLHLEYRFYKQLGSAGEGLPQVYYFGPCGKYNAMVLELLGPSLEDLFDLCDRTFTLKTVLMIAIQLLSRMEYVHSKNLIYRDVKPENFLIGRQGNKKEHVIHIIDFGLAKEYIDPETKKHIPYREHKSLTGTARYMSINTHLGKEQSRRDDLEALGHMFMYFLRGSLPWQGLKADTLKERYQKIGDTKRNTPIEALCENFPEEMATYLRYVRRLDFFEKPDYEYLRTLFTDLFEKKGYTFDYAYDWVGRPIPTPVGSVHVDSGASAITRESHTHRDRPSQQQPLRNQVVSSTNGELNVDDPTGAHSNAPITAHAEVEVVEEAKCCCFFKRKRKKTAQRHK
Chain of Serine/threonine-protein kinase PAK 4 (Homo sapiens) (O96013 whole entry, looked up): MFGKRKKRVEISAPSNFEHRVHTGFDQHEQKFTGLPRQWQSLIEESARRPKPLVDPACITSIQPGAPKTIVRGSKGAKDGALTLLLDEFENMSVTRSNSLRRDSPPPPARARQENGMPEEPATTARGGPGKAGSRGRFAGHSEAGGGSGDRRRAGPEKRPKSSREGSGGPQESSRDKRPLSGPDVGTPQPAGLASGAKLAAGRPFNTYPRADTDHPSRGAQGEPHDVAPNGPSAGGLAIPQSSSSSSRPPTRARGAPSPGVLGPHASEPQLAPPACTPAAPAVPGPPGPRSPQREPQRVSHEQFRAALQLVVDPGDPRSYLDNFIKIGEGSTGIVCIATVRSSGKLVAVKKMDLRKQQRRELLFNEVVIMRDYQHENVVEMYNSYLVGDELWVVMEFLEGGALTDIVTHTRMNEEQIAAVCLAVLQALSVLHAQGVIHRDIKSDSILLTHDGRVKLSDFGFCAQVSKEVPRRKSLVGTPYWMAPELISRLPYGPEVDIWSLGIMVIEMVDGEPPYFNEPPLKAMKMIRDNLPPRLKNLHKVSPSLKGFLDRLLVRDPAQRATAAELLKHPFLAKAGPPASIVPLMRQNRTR
Chain of SRSF protein kinase 3 (Homo sapiens) (Q9UPE1 whole entry): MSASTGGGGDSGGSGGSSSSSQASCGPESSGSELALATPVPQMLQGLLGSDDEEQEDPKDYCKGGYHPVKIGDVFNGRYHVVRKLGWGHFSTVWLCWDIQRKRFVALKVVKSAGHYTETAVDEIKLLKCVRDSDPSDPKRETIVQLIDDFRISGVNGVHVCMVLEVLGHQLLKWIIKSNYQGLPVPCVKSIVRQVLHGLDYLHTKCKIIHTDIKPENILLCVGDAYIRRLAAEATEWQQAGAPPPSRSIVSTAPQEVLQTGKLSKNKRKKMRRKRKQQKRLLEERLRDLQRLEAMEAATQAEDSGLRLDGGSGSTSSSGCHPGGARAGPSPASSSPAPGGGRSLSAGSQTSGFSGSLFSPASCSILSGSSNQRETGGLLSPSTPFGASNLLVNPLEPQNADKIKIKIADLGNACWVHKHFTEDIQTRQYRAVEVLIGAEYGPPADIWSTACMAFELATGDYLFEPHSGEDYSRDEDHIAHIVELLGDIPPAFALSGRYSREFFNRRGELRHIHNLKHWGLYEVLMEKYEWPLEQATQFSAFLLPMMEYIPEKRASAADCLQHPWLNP
Chain of MAP kinase-activated protein kinase 2 (Homo sapiens) (P49137 whole entry, looked up): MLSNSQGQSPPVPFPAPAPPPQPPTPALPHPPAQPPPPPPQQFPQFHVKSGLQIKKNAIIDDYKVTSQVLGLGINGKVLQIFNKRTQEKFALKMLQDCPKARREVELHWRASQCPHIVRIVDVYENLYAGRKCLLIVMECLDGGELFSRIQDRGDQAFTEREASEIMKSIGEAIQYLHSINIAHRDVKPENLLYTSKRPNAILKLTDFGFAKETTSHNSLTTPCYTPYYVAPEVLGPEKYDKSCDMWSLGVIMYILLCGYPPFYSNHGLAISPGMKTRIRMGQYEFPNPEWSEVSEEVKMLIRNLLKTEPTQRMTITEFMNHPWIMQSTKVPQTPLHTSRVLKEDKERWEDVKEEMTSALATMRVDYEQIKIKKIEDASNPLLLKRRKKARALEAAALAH

Compound	inhibition [1] [%]	inhibition [2] [%]	inhibition [3] [%]	inhibition [4] [%]	inhibition [5] [%]	inhibition [6] [%]	inhibition [7] [%]	inhibition [8] [%]	inhibition [9] [%]	inhibition [10] [%]
C[C@]1(O)C[C@@H](c2nc(-c3ccc4ccc(-c5ccccc5)nc4c3)c3c(N)nccn32)C1	2.76	-0.6	2.92	3.19	-2.07					
C[C@@]1(C(=O)Nc2ccc(F)nc2)CCCN1c1nc(Nc2cc(C3CC3)n[nH]2)c2cccn2n1						2.92	0.98	-2.03	-3.15	73.5
